Measured values published in ChEMBL document CHEMBL5465560, “Selectivity Literature for EUbOPEN Chemogenomic Library” (2024).

Tests used:
[1] = target: T1, Ephrin type-A receptor 6 (Homo sapiens) (UniProt Q9UF33); conditions: at 10 µM
T1 sequence (whole entry): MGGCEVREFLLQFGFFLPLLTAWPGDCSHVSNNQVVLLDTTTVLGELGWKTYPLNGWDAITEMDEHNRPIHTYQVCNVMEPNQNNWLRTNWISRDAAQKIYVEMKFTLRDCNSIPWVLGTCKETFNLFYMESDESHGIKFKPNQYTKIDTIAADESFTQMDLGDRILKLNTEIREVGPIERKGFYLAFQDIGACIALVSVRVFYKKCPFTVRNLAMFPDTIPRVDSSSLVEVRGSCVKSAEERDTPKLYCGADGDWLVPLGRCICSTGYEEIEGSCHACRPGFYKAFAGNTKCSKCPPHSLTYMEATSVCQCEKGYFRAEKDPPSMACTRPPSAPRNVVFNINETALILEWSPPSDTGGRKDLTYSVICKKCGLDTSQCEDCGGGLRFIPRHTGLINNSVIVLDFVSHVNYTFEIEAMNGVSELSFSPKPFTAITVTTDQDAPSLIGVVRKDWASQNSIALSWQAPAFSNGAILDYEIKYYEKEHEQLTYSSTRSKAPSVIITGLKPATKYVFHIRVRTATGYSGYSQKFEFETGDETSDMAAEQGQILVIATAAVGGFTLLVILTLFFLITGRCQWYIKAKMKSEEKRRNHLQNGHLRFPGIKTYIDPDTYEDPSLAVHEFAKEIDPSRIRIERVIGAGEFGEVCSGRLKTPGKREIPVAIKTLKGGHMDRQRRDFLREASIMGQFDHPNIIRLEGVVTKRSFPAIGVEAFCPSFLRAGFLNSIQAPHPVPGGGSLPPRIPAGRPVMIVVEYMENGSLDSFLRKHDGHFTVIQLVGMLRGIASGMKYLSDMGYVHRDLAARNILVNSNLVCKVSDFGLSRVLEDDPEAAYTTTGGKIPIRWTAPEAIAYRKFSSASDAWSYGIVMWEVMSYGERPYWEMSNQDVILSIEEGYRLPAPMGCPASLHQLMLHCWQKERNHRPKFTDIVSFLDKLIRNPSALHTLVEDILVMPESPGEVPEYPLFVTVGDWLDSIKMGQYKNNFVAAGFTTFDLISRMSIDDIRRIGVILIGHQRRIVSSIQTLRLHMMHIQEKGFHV

[2] = target: T2, Serine/threonine-protein kinase BRSK1 (Homo sapiens) (UniProt Q8TDC3); assay: Selectivity interaction (KinomeScan (DiscoverX)) EUB0000045b BRSK1
T2 sequence (whole entry): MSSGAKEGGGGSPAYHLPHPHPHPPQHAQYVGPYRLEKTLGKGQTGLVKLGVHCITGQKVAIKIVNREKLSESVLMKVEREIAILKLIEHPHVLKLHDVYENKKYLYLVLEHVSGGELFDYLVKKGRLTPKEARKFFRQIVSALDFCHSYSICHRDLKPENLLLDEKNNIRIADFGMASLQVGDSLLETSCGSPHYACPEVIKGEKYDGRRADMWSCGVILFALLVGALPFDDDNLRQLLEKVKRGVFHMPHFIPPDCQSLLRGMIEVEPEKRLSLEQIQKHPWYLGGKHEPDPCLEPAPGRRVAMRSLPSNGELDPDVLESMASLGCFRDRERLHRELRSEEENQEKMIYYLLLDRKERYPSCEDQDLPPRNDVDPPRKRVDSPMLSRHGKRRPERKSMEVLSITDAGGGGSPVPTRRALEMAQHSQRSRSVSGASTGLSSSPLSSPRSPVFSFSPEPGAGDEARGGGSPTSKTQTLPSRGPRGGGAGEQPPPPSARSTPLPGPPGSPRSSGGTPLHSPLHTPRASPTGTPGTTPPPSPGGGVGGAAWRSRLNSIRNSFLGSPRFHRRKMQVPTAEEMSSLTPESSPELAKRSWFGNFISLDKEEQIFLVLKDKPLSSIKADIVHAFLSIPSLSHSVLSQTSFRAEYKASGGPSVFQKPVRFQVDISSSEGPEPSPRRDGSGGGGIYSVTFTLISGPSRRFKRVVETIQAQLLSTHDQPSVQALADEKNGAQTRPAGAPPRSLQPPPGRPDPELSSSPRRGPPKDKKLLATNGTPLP

[3] = target: Serine/threonine-protein kinase SIK2 (Homo sapiens) (UniProt Q9H0K1); assay: Selectivity interaction (KinomeScan (DiscoverX)) EUB0000045b SIK2
Serine/threonine-protein kinase SIK2 (Homo sapiens), sequence (Q9H0K1 whole entry, looked up): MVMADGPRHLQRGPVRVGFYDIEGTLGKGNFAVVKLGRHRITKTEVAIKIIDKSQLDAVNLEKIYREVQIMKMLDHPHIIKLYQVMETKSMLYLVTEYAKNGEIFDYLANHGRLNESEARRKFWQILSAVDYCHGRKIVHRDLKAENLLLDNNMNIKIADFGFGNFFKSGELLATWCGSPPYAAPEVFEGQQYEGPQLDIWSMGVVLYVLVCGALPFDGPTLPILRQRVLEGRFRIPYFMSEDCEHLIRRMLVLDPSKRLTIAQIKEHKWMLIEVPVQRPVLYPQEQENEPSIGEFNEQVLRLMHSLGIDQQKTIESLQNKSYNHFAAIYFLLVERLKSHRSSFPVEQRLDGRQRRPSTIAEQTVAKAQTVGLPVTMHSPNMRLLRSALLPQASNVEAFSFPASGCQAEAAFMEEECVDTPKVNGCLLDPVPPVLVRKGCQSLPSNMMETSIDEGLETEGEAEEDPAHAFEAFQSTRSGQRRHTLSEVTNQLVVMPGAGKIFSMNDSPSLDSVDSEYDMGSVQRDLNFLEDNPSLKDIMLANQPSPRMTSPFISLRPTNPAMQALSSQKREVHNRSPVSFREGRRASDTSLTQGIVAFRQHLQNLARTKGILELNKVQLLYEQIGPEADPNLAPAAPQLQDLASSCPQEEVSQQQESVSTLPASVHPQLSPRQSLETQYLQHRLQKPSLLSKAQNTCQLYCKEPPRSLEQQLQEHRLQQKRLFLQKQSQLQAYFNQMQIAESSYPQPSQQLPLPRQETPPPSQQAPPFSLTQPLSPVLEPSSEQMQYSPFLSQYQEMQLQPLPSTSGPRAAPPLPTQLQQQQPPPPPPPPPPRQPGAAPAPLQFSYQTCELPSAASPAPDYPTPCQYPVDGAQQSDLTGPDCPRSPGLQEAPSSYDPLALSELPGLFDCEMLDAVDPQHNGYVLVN

[4] = target: T3, cAMP-dependent protein kinase catalytic subunit PRKX (Homo sapiens) (UniProt P51817); conditions: at 10 µM
T3 sequence (whole entry): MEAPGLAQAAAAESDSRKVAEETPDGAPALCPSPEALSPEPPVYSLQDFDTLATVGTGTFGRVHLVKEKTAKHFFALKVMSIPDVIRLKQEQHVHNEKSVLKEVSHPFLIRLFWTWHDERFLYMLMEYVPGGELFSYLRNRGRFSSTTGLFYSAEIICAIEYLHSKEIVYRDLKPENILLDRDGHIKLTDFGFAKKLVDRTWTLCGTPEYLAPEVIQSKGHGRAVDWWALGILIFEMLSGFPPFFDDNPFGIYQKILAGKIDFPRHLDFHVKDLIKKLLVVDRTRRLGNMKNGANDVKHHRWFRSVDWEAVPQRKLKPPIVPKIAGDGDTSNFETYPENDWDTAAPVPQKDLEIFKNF

[5] = target: Death-associated protein kinase 3 (Homo sapiens) (UniProt O43293); assay: Selectivity interaction (Kinase panel (Invitrogen)) EUB0000639a DAPK3; conditions: at 200 nM
Death-associated protein kinase 3 (Homo sapiens), sequence (O43293 whole entry, looked up): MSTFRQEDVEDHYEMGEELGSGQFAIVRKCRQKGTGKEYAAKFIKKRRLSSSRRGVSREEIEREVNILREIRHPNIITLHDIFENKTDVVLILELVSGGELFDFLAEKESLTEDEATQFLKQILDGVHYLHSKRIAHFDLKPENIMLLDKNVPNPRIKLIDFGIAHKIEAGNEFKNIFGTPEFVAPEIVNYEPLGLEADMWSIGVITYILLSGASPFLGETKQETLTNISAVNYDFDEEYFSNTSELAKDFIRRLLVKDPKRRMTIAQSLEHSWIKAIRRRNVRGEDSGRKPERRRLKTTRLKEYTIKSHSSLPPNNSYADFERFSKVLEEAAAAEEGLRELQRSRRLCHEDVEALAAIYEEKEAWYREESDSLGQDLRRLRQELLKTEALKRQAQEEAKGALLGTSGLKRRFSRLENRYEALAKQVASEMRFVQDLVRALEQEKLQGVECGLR

[6] = target: Mitogen-activated protein kinase kinase kinase 11 (Homo sapiens) (UniProt Q16584); assay: Selectivity interaction (ActivX KiNativ screen (kinase selectivity in THP-1 cell lysates)) EUB0000639a MAP3K11; type: subcellular; conditions: lysate, at 0.04 µM
Mitogen-activated protein kinase kinase kinase 11 (Homo sapiens), sequence (Q16584 whole entry, looked up): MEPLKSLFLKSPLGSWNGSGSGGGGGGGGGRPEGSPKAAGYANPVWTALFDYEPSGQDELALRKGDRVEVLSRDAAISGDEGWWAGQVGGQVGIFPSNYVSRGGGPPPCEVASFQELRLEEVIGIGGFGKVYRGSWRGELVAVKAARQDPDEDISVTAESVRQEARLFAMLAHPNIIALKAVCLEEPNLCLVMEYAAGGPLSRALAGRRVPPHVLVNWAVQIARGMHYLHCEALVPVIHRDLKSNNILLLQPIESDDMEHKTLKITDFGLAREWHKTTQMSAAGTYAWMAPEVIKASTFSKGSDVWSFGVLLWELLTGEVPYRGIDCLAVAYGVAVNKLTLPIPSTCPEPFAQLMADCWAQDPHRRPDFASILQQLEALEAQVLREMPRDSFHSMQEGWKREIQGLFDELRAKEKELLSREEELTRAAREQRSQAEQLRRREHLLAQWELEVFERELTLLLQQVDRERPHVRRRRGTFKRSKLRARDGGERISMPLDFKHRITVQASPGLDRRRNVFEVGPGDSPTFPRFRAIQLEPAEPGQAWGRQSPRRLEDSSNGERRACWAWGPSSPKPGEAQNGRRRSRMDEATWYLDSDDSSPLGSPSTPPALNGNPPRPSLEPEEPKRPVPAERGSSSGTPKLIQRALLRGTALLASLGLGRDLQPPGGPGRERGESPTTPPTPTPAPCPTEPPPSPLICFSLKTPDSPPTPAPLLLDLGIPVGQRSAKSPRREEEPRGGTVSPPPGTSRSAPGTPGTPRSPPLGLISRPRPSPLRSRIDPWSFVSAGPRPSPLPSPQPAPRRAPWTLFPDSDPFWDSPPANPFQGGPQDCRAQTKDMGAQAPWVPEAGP

[7] = target: Cyclin-dependent kinase 8 (Homo sapiens, UniProt P49336); assay: Selectivity interaction (KinomeScan (DiscoverX)) EUB0000229b CDK8; conditions: at 10 µM
Cyclin-dependent kinase 8, sequence (P49336 whole entry): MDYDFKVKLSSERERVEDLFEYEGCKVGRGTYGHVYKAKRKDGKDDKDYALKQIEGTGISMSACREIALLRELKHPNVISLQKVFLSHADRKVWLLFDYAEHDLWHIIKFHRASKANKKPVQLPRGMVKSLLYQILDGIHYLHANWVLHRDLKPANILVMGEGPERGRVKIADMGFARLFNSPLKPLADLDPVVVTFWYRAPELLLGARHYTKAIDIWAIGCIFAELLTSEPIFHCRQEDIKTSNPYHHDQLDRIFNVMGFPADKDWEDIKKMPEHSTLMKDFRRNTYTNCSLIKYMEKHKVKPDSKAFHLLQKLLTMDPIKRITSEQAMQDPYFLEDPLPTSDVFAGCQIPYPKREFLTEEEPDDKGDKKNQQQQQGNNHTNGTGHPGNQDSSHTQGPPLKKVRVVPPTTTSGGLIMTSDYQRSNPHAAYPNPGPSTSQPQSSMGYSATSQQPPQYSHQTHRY

[8] = tested on: Mast/stem cell growth factor receptor Kit (Homo sapiens), P10721 [T670I]; assay: (§1) Selectivity interaction (ProQinase) EUB0000171b KIT
Mast/stem cell growth factor receptor Kit (Homo sapiens), P10721 [T670I], sequence (P10721 whole entry T670I): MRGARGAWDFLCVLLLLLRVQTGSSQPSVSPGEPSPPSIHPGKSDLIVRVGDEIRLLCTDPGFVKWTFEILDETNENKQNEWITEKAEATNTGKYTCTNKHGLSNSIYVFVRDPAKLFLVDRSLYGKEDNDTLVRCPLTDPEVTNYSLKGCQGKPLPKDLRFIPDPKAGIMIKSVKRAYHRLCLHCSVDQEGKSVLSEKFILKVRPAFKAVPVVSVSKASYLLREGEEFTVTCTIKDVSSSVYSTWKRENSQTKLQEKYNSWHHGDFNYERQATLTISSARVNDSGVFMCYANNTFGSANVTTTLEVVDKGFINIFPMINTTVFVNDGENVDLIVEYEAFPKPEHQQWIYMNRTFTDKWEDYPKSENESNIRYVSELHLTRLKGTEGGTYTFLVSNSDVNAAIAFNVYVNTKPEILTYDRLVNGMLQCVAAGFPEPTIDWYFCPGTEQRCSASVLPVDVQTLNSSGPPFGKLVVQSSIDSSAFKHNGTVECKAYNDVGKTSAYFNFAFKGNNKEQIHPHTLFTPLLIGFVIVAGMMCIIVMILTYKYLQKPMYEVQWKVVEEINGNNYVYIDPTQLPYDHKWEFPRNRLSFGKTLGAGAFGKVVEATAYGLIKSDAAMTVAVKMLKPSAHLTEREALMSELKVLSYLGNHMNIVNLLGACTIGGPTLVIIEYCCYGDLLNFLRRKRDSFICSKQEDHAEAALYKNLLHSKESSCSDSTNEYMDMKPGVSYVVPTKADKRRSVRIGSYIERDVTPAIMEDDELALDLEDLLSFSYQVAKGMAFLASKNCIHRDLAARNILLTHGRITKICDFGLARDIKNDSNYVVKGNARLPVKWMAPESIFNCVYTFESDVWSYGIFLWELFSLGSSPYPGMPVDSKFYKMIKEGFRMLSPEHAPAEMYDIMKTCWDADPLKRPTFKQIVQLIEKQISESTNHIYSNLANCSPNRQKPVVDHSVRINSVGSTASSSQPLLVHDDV

[9] = tested on: Mast/stem cell growth factor receptor Kit (Homo sapiens), P10721 [V560G]; assay: as §1
Mast/stem cell growth factor receptor Kit (Homo sapiens), P10721 [V560G], sequence (P10721 whole entry V560G): as the sequence (P10721 whole entry T670I) above, with V560G, I670T counted along it

[10] = target: Sodium-dependent dopamine transporter (Homo sapiens, UniProt Q01959); assay: Selectivity interaction (Dopamine Transporter assay, human recombinant ) EUB0000877a SLC6A3
Sodium-dependent dopamine transporter, sequence (Q01959 whole entry): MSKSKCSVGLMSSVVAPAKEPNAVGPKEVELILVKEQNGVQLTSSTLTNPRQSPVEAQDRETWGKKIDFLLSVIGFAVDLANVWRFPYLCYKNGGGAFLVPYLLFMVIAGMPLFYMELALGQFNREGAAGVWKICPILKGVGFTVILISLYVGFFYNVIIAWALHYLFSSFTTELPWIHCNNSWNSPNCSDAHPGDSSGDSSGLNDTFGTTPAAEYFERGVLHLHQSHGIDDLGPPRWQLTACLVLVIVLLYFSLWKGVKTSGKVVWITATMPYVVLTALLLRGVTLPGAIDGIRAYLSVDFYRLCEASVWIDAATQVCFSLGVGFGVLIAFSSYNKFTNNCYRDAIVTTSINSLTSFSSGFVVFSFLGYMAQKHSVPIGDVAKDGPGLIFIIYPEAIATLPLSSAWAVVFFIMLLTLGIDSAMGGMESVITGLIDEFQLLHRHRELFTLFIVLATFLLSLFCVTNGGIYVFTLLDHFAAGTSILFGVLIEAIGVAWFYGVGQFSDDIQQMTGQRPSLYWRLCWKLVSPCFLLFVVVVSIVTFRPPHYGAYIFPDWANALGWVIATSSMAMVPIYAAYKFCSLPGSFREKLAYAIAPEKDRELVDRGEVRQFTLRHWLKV

[11] = target: 5-hydroxytryptamine receptor 1A (Homo sapiens, UniProt P08908); assay: Selectivity interaction (Serotonin 5HT1A Calcium flux assay, agonist and antagonist mode ) EUB0000877a HTR1A
5-hydroxytryptamine receptor 1A, sequence (P08908 whole entry): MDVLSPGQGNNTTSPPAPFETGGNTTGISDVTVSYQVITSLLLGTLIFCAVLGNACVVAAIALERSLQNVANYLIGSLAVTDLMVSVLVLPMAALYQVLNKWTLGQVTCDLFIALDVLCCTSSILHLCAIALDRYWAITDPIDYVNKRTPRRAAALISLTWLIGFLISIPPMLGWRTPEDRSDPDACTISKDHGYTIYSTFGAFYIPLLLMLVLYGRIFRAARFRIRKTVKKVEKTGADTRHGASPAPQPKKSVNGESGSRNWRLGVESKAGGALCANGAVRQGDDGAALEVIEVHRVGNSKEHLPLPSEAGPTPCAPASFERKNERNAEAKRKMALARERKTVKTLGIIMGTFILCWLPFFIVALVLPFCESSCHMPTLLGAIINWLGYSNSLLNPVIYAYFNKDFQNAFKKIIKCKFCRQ

CCN(CC)CCCCNc1ncc2cc(-c3cc(OC)cc(OC)c3)c(NC(=O)NC(C)(C)C)nc2n1
% of control [1]: 100%

C=CC(=O)Nc1cc(-n2c(=O)ccc3cnc4ccc(-c5ccc(NS(C)(=O)=O)cc5)cc4c32)ccc1C
% of control ([2]; at 1 µM): 100% | % of control ([2]; at 10 µM): 97% | % of control ([3]; at 1 µM): 100% | % of control ([3]; at 10 µM): 100%

COCC(=O)NC/C=C/c1ccc2ncnc(Nc3ccc(Oc4ccc(C)nc4)c(C)c3)c2c1 [CP-724714]
% of control [4]: 100%

CC[C@@H]1[C@H](F)C(=O)N[C@@H]1COc1nccc2cc(C(N)=O)c(OC)cc12 [ZIMLOVISERTIB]
% of inhibition [5]: 20.3% | % of inhibition [6]: -8.9%

COc1cc(N(C)c2ccnc3ccc(C(F)(F)F)cc23)cc(OC)c1OC
% binding [7]: 100%

C=CC(=O)Nc1cccc(C(=O)Nc2ccc(Nc3cc(-c4[nH]c(SC)nc4C)ccn3)cc2)c1
% of control ([8]; at 1 µM): 107% | % of control ([8]; at 5 µM): 98% | % of control ([9]; at 1 µM): 95% | % of control ([9]; at 5 µM): 67%

CCC(=O)N1CC[C@H](Nc2ncnc3c2CN(c2cnc(OC)c(C(F)(F)F)c2)CC3)C1 [LENIOLISIB]
IC50 [10]: > 30 µM | IC50 [11]: > 30 µM
